Consider 4 compounds from article PMC11001709, “Anti-toxoplasma activity and DNA-binding of copper(II) and zinc(II) coordination compounds with 5-nitroimidazole-based ligands” (Journal of Biological Inorganic Chemistry, 2023).

For one data set, the system named is ct-DNA. Description: UV-Vis absorption titration with ct-DNA (Kb). The format is binding, calf. Particulars: band at 320 nm, cacodylate/NaCl buffer pH 7.25, 1 h. As for the experimental part: For the UV–Vis, fluorescence and circular dichroism assays the concentration of ct-DNA was determined on a Varian Cary 100 Scan spectrophotometer from the absorption at 260 nm and the corresponding molar absorptivity of 6600 M^−1 cm^−1 (nucleobase concentration). The stock solutions of the coordination compounds and the free ligands were prepared in cacodylate/NaCl buffer (1 mM cacodylic acid and 20 mM sodium chloride) at pH 7.25. The final samples contained a DMSO concentration of 0.2%.
Absorption titration experiments were carried out by adding increasing concentrations of ct-DNA (0–25 µM) to 10 µM of the compounds in a final volume of 2 mL. The samples were incubated for 1 h at 37 °C, and spectra were collected on a Varian Cary 100 Scan spectrophotometer. For these assays the charge-transfer band of the compounds was followed at 320 nm. The intrinsic binding constant (Kb) was determined from the titration data using Eq. 2:2 DNA/εα-εf=DNA/ε0-εf+1/Kbε0-εf where εa, ε0 and εf are respectively, the molar extinction coefficients of […].

The test system of data set [1] is mouse fibroblast L929 cells. Briefly: Cytotoxic activity in healthy host cells. The class given is cell-based. As for the experimental part: The IC50 values obtained for [Cu(onz)2Cl2] (210.2 μM) and [Cu(onz)2Br2]
Data set [2] has as its system young adult male ICR mice. Description: Acute toxicity (LD50), intraperitoneal. The format is in vivo, mouse. The note with it: single dose. As for the experimental part: For the acute toxicity assays, young adult male ICR mice with an average weight of 28 g and a variation of no more than ± 3 g were used. The handling of the animals was carried out in accordance with the committee for the care and use of laboratory animals (CICUAL) from the Faculty of Chemistry, UNAM.
A stock solution with a concentration of 25 mg mL^−1 of [Cu(onz)2Cl2] and [Cu(onz)2Br2] was prepared with water for injection. In the case of [Cu(onz)2Br2], 0.1% of DMSO was added. For the pharmacological profile three mice were used for each dose of 1, 10 and 100 mg kg^−1 per compound. For the acute toxicity assays five mice were treated for each dose (10, 50, 75 and 100 mg kg^−1) per compound. […] A detailed clinical observation was made 24 h after administration. The doses were administered intraperitoneally. The data obtained were used to calculate the mean lethal dose using the software Prism 13.0 and SPSS 29.0 [37, 38].
Based on the anti-toxoplasma results the medial lethal dose (LD50) for [Cu(onz)2Cl2] and [Cu(onz)2Br2] were determined intraperitoneally using doses of 10, 50, 75 and 100 mg kg^−1 per compound in young adult male ICR mice.

The subject of a further data set is Entamoeba histolytica. The note with it: cited from earlier work.

Structures are written as SMILES.

Regarding `Cc1ncc([N+](=O)[O-])n1CCCl.Cc1ncc([N+](=O)[O-])n1CCCl.[Br][Cu][Br]` [[Cu(cenz)2Br2]], the Kb in the data set with ct-DNA turned out to be 450000 M⁻¹.
The term IC50 denotes the concentration needed to halve the response being measured. The term LD50 denotes the dose at which mortality reaches 50%. Low values mean a more toxic substance, high ones a less toxic substance. In turn, `Cc1n(CC(O)CCl)c([N+](=O)[O-])c[n+]1[Cu-2]([Br])([Br])[n+]1cc([N+](=O)[O-])n(CC(O)CCl)c1C` (stereo not drawn) [[Cu(onz)2Br2]] displayed an IC50 in data set [1] of 180 µM. The compound further registered an LD50 in data set [2] of 83.24 mg/kg.
The matching figures for `Cc1ncc([N+](=O)[O-])n1CC(O)CCl.Cc1ncc([N+](=O)[O-])n1CC(O)CCl.[Cl-].[Cl-].[Cu+2]` (stereo not drawn) [[Cu(onz)2Cl2]]: 210 µM and 49.35 mg/kg.
The MIC is the lowest concentration found to suppress growth. With `Cc1ncc([N+](=O)[O-])n1CC(O)CCl.Cc1ncc([N+](=O)[O-])n1CC(O)CCl.[Cl][Zn][Cl]` (stereo not drawn) [[Zn(onz)2Cl2]], in the data set with Entamoeba histolytica, the MIC is 6.25 µM.
